Assay results reported in patent US12662451B2, “Chemical compounds and uses thereof” (GLAXOSMITHKLINE INTELLECTUAL PROPERTY (NO.4) LIMITED, priority 2023, dated 2026).
Counter-ions that a name gives are not always drawn.

target: T1, recombinant full-length WRN protein (1-1432) (Homo sapiens, UniProt Q14191); assay: WRN unwinding activity, fluorogenic 384-well assay (Example A); format: biochemical; conditions: WRN unwinding activity, 4 hr; Table 2; read-out: 4 hr UNW pIC50 (converted)
T1 construct: recombinant full-length WRN protein (1-1432)
How it was run: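 Read-out is end-point unwinding of a fluorophore/quencher duplex (ex 525, em 598 nm) after 60 min with 200 μM ATP and 12 nM DNA (2× stocks), EDTA stop. Compound first sat 4 h with 200 pM WRN (2× stock) in pH 8.0 Tris buffer; four-parameter fit gives pIC50.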

T1 sequence (Q14191 whole entry): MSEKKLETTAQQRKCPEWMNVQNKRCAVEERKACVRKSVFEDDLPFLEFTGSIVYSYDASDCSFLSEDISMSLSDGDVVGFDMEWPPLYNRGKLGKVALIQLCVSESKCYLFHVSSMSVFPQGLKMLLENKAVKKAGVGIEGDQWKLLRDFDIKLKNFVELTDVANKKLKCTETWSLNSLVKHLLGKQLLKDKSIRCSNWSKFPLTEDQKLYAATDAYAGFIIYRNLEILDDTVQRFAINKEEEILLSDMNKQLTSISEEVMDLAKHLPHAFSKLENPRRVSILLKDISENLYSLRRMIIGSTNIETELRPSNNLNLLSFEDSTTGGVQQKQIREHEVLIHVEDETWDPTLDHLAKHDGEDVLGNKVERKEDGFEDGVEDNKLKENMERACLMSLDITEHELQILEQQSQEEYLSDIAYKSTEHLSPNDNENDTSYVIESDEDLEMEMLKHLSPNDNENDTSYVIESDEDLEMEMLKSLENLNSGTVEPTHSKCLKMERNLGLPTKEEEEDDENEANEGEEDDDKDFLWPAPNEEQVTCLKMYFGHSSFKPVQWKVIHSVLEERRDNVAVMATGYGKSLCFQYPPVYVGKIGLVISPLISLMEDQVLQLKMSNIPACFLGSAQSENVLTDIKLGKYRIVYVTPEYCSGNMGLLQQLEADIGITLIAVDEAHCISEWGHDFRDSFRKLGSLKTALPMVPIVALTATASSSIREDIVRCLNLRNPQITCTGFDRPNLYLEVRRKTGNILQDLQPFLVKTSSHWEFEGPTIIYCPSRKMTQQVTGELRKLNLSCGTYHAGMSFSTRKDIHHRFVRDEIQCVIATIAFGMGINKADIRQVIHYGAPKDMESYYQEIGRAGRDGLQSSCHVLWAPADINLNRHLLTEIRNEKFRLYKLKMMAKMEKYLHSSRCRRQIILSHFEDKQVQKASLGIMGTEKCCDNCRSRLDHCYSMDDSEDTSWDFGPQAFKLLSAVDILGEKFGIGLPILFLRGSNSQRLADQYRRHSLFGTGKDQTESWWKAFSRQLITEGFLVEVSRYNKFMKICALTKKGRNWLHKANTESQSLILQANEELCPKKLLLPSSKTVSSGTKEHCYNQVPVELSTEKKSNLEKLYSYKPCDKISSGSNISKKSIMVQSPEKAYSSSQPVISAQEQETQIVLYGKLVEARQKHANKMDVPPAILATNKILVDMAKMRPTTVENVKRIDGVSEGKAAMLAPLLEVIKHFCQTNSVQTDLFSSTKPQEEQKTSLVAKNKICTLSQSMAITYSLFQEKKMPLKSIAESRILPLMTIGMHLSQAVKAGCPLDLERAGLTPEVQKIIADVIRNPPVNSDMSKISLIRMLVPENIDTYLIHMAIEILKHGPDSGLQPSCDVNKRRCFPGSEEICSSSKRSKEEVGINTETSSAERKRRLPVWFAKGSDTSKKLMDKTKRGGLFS

Row | IC50 | SMILES
1 | 2510 nM | Cc1nc2cc(S(=O)(=O)N(C)c3ccc([C@H]4CCC[C@@H](C(=O)N[C@H]5CCCC[C@@H]5C)[C@@H]4C(=O)O)cc3)ccc2n1C [Example 197, (1R,2R,6S)-2-(((1S,2S)-2-methylcyclohexyl)carbamoyl)-6-(4-((N,1,2-trimethyl-1H-benzo[d]imidazole)-5-sulfonamido)phenyl)cyclohexane-1-carboxylic acid]
2 | 5.01 nM | Cc1nc2cc(S(=O)(=O)N(C)c3ccc([C@H]4CCC[C@@H](C(=O)NC56CC(C7CCC7)(C5)C6)[C@@H]4C(=O)O)cc3)ccc2n1C [Example 198, (1R,2R,6S)-2-((3-cyclobutylbicyclo[1.1.1]pentan-1-yl)carbamoyl)-6-(4-((N,1,2-trimethyl-1H-benzo[d]imidazole)-5-sulfonamido)phenyl)cyclohexane-1-carboxylic acid]
3 | 25.1 nM | Cc1nc2cc(S(=O)(=O)N(C)c3ccc([C@H]4CCC[C@@H](COc5ccc(C(F)(F)F)cc5)[C@@H]4C(=O)O)cc3)ccc2n1C [Example 205, (1R,2R,6S)-2-((4-(trifluoromethyl)phenoxy)methyl)-6-(4-((N,1,2-trimethyl-1H-benzo[d]imidazole)-5-sulfonamido)phenyl)cyclohexane-1-carboxylic acid]

More lines, now with the values behind:

Row | SMILES | IC50
4 | Cc1nc2cc(S(=O)(=O)N(C)c3ccc([C@H]4CCC[C@@H](C(=O)NC56CC(C(F)F)(C5)C6)[C@@H]4C(=O)O)cc3)ccc2n1C [Example 186, (1R,2R,6S)-2-((3-(difluoromethyl)bicyclo[1.1.1]pentan-1-yl)carbamoyl)-6-(4-((N,1,2-trimethyl-1H-benzo[d]imidazole)-5-sulfonamido)phenyl)cyclohexane-1-carboxylic acid, formic acid salt] | 3160 nM
5 | Cc1nc2cc(S(=O)(=O)N(C)c3ccc([C@H]4CCC[C@@H](C(=O)N[C@H]5CC[C@@H](C6CCC6)CC5)[C@@H]4C(=O)O)cc3)ccc2n1C [Example 189, (1R,2R,6S)-2-(((1s,4S)-4-cyclobutylcyclohexyl)carbamoyl)-6-(4-((N,1,2-trimethyl-1H-benzo[d]imidazole)-5-sulfonamido)phenyl)cyclohexane-1-carboxylic acid] | 398 nM
6 | Cc1nc2cc(S(=O)(=O)N(C)c3ccc([C@H]4CCC[C@@H](C(=O)N[C@@H]5C[C@@H]6CC(F)(F)C[C@@H]6C5)[C@@H]4C(=O)O)cc3)ccc2n1C [Example 191, (1R,2R,6S)-2-(((2s,3aR,6aS)-5,5-difluorooctahydropentalen-2-yl)carbamoyl)-6-(4-((N,1,2-trimethyl-1H-benzo[d]imidazole)-5-sulfonamido)phenyl)cyclohexane-1-carboxylic acid] | 398 nM
7 | Cc1nc2cc(S(=O)(=O)N(C)c3ccc([C@H]4CCC[C@@H](C(=O)N[C@@H]5CCC[C@@H](C(F)(F)F)C5)[C@@H]4C(=O)O)cc3)ccc2n1C [Example 192, (1R,2R,6S)-2-(((1R,3R)-3-(trifluoromethyl)cyclohexyl)carbamoyl)-6-(4-((N,1,2-trimethyl-1H-benzo[d]imidazole)-5-sulfonamido)phenyl)cyclohexane-1-carboxylic acid] | 39800 nM
8 | Cc1nc2cc(S(=O)(=O)N(C)c3ccc([C@H]4CCC[C@@H](C(=O)N[C@]56CC[C@H](CC5)C6)[C@@H]4C(=O)O)cc3)ccc2n1C [Example 193, (1R,2R,6S)-2-(((1r,4R)-bicyclo[2.2.1]heptan-1-yl)carbamoyl)-6-(4-((N,1,2-trimethyl-1H-benzo[d]imidazole)-5-sulfonamido)phenyl)cyclohexane-1-carboxylic acid] | 20000 nM
9 | CCC[C@H]1CC[C@@H](NC(=O)[C@@H]2CCC[C@H](c3ccc(N(C)S(=O)(=O)c4ccc5c(c4)nc(C)n5C)cc3)[C@H]2C(=O)O)CC1 [Example 195, (1R,2R,6S)-2-(((1r,4R)-4-propylcyclohexyl)carbamoyl)-6-(4-((N,1,2-trimethyl-1H-benzo[d]imidazole)-5-sulfonamido)phenyl)cyclohexane-1-carboxylic acid] | 20 nM
